The target of the test is Orai1 (Homo sapiens, UniProt Q96D31). In words: patch-clamp electrophysiology in Orai1-transfected HEK293 cells. Type of test: cell-based. From the text: patch-clamp electrophysiology in Orai1-transfected HEK293 cells on Orai1 | Electrophysiological recordings in Orai1-transfected HEK293 cells also confirmed that JPIII is a potent Orai1 inhibitor with an IC50 of […]
For orientation: Patch clamp records ionic current or voltage across a cell membrane.

Each structure is given as a SMILES string.

As a reminder, the IC50 is the concentration needed to halve the response being measured. A high value points to a need for much substance.

Chain of Orai1 (Q96D31 whole entry): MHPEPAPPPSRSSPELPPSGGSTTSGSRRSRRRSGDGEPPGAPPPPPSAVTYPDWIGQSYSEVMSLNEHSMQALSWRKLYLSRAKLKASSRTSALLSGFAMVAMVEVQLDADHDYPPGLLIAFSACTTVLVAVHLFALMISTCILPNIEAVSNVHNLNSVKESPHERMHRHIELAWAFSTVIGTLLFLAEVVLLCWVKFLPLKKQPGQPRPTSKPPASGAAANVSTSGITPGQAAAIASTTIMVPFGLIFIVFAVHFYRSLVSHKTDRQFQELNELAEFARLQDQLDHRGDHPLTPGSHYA

In turn, `COc1ccc(OC)c(-c2ccc(NCc3ccncc3)cc2)c1` [JPIII, 4-(2,5-dimethoxyphenyl)-N-[(pyridin-4-yl)methyl]aniline] gave an IC50 of 0.244 ± 0.039 µM.

These data come from publication PMC6970549, “Orai1 Channel Inhibition Preserves Left Ventricular Systolic Function and Normal Ca^2+ Handling After Pressure Overload” (Circulation, 2020).
